What was measured:
Format in all cases: in vivo
[1] = tested on: pigweed (Amaranthus retroflexus); assay: Test A preemergence; details: Amaranthus retroflexus, pre-emergence, 240 h, 0 to 100 scale where 0 is no effect and 100 is complete control, read-out: Pigweed plant response rating
[2] = tested on: barnyardgrass (Echinochloa crus-galli); assay: Test A preemergence; details: Echinochloa crus-galli, pre-emergence, 240 h, 0 to 100 scale where 0 is no effect and 100 is complete control, read-out: Barnyardgrass plant response rating
Method in brief: (§1)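 Seeds sprayed preemergence with a directed soil spray, or plants at 2 to 10 cm height and one- to two-leaf stage sprayed postemergence, with test chemicals in a non-phytotoxic solvent mixture containing surfactant, in loam soil–sand blend. Injury rated visually against untreated controls after about 10 d in greenhouse, 0 (no effect) to 100 (complete control).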

[3] = tested on: ragweed (common ragweed, Ambrosia elatior); assay: Test A preemergence; details: Ambrosia artemisiifolia, pre-emergence, 240 h, 0 to 100 scale where 0 is no effect and 100 is complete control, read-out: Ragweed plant response rating
Method in brief: as §1

Kochia (Kochia scoparia) [4] = assay: Test A preemergence; details: Bassia scoparia, pre-emergence, 240 h, 0 to 100 scale where 0 is no effect and 100 is complete control, read-out: Kochia plant response rating
Method in brief: as §1

[5] = tested on: ryegrass, Italian (Italian ryegrass, Lolium multiflorum); assay: Test A preemergence; details: Lolium multiflorum, pre-emergence, 240 h, 0 to 100 scale where 0 is no effect and 100 is complete control, read-out: Ryegrass, Italian plant response rating
Method in brief: as §1

[6] = tested on: giant foxtail (Setaria faberii); assay: Test A preemergence; details: Setaria faberi, pre-emergence, 240 h, 0 to 100 scale where 0 is no effect and 100 is complete control, read-out: Foxtail, Giant plant response rating
Method in brief: as §1

[7] = tested on: barnyardgrass (Echinochloa crus-galli); assay: Test B flooded paddy test; details: Echinochloa crus-galli, 250 g ai/ha, Flood; 0 to 100 scale where 0 is no effect and 100 is complete control; read-out: Barnyardgrass plant response rating
Method in brief: (§2)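 2-leaf plants; pots flooded 3 cm over soil; cpd added to paddy water; depth held; greenhouse 13–15 d; visual rating vs controls, 0 = no effect, 100 = complete control.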

[8] = tested on: sedge, umbrella (small-flower umbrella sedge, Cyperus difformis); assay: Test B flooded paddy test; details: Cyperus difformis, 250 g ai/ha, Flood; 0 to 100 scale where 0 is no effect and 100 is complete control; read-out: Sedge, Umbrella plant response rating
Method in brief: as §2

rice (Oryra sativa) = assay: Test B flooded paddy test; details: Oryza sativa, 250 g ai/ha, Flood; 0 to 100 scale where 0 is no effect and 100 is complete control; read-out: Rice plant response rating
Method in brief: as §2

[9] = tested on: ducksalad (Heteranthera limosa); assay: Test B flooded paddy test; details: Heteranthera limosa, 250 g ai/ha, Flood; 0 to 100 scale where 0 is no effect and 100 is complete control; read-out: Ducksalad plant response rating
Method in brief: as §2

[10] = tested on: pigweed (Amaranthus retroflexus); assay: Test A postemergence; details: Amaranthus retroflexus, post-emergence, 240 h
Method in brief: as §1

[11] = tested on: barnyardgrass (Echinochloa crus-galli); assay: Test A postemergence; details: Echinochloa crus-galli, post-emergence, 240 h
Method in brief: as §1

[12] = tested on: wheat (Triticum aestivum); assay: Test A postemergence; details: Triticum aestivum, post-emergence, 240 h
Method in brief: as §1

[13] = tested on: Galium (catchweed bedstraw, Galium aparine); assay: Test A postemergence; details: Galium, post-emergence, 240 h
Method in brief: as §1

[14] = tested on: ragweed (common ragweed, Ambrosia elatior); assay: Test A postemergence; details: Ambrosia artemisiifolia, post-emergence, 240 h
Method in brief: as §1

Kochia (Kochia scoparia) [15] = assay: Test A postemergence; details: Bassia scoparia, post-emergence, 240 h
Method in brief: as §1

[16] = tested on: ryegrass, Italian (Italian ryegrass, Lolium multiflorum); assay: Test A postemergence; details: Lolium multiflorum, post-emergence, 240 h
Method in brief: as §1

[17] = tested on: blackgrass (Alopecurus myosuroides); assay: Test A postemergence; details: Alopecurus myosuroides, post-emergence, 240 h
Method in brief: as §1

corn (Zea mays) = assay: Test A postemergence; details: Zea mays, post-emergence, 240 h
Method in brief: as §1

[18] = tested on: giant foxtail (Setaria faberii); assay: Test A postemergence; details: Setaria faberi, post-emergence, 240 h
Method in brief: as §1

[19] = 125 g ai/ha, preemergence, approx. 10 d

CN1C[C@H](c2csc3c2CCOC3)[C@@H](C(=O)Nc2ccccc2S(C)(=O)=O)C1=O [Compound 1078]
pest or weed control at 31 g/ha ([1]; 31 g ai/ha, Preemergence): 0%
pest or weed control at 125 g/ha [1, 19]: 0%
pest or weed control at 31 g/ha ([2]; 31 g ai/ha, Preemergence): 0%
pest or weed control at 125 g/ha [2, 19]: 0%
pest or weed control at 31 g/ha ([3]; 31 g ai/ha, Preemergence): 0%
pest or weed control at 125 g/ha [3, 19]: 0%
pest or weed control at 31 g/ha (Kochia (Kochia scoparia) [4]; 31 g ai/ha, Preemergence): 0%
pest or weed control at 125 g/ha (Kochia (Kochia scoparia) [4]; [19]): 0%
pest or weed control at 31 g/ha ([5]; 31 g ai/ha, Preemergence): 0%
pest or weed control at 125 g/ha [5, 19]: 0%
pest or weed control at 31 g/ha ([6]; 31 g ai/ha, Preemergence): 0%
pest or weed control at 125 g/ha [6, 19]: 0%
pest or weed control at 250 g/ha [7]: 30%
pest or weed control at 250 g/ha [8]: 0%
pest or weed control at 250 g/ha (rice (Oryra sativa)): 0%
pest or weed control at 250 g/ha [9]: 0%
pest or weed control at 125 g/ha ([10]; 125 g ai/ha, postemergence, visual injury on 0 to 100 scale (0 no effect, 100 complete control), approx. 10 d, read-out: Pigweed plant response rating): 0%
pest or weed control at 31 g/ha ([10]; Postemergence, 31 g ai/ha, visual injury after approx. 10 d, 0 to 100 scale, 0 no effect, 100 complete control, read-out: Plant response rating, Pigweed): 0%
pest or weed control at 125 g/ha ([11]; 125 g ai/ha, postemergence, visual injury on 0 to 100 scale (0 no effect, 100 complete control), approx. 10 d, read-out: Barnyardgrass plant response rating): 10%
pest or weed control at 31 g/ha ([11]; Postemergence, 31 g ai/ha, visual injury after approx. 10 d, 0 to 100 scale, 0 no effect, 100 complete control, read-out: Plant response rating, Barnyardgrass): 0%
plant injury at 125 g/ha ([12]; 125 g ai/ha, postemergence, visual injury on 0 to 100 scale (0 no effect, 100 complete control), approx. 10 d, read-out: Wheat plant response rating): 0%
plant injury at 31 g/ha ([12]; Postemergence, 31 g ai/ha, visual injury after approx. 10 d, 0 to 100 scale, 0 no effect, 100 complete control, read-out: Plant response rating, Wheat): 0%
pest or weed control at 125 g/ha ([13]; 125 g ai/ha, postemergence, visual injury on 0 to 100 scale (0 no effect, 100 complete control), approx. 10 d, read-out: Galium plant response rating): 0%
pest or weed control at 31 g/ha ([13]; Postemergence, 31 g ai/ha, visual injury after approx. 10 d, 0 to 100 scale, 0 no effect, 100 complete control, read-out: Plant response rating, Galium): 0%
pest or weed control at 125 g/ha ([14]; 125 g ai/ha, postemergence, visual injury on 0 to 100 scale (0 no effect, 100 complete control), approx. 10 d, read-out: Ragweed plant response rating): 0%
pest or weed control at 31 g/ha ([14]; Postemergence, 31 g ai/ha, visual injury after approx. 10 d, 0 to 100 scale, 0 no effect, 100 complete control, read-out: Plant response rating, Ragweed): 0%
pest or weed control at 125 g/ha (Kochia (Kochia scoparia) [15]; 125 g ai/ha, postemergence, visual injury on 0 to 100 scale (0 no effect, 100 complete control), approx. 10 d, read-out: Kochia plant response rating): 0%
pest or weed control at 31 g/ha (Kochia (Kochia scoparia) [15]; Postemergence, 31 g ai/ha, visual injury after approx. 10 d, 0 to 100 scale, 0 no effect, 100 complete control, read-out: Plant response rating, Kochia): 0%
pest or weed control at 125 g/ha ([16]; 125 g ai/ha, postemergence, visual injury on 0 to 100 scale (0 no effect, 100 complete control), approx. 10 d, read-out: Ryegrass, Italian plant response rating): 0%
pest or weed control at 31 g/ha ([16]; Postemergence, 31 g ai/ha, visual injury after approx. 10 d, 0 to 100 scale, 0 no effect, 100 complete control, read-out: Plant response rating, Ryegrass, Italian): 0%
pest or weed control at 125 g/ha ([17]; 125 g ai/ha, postemergence, visual injury on 0 to 100 scale (0 no effect, 100 complete control), approx. 10 d, read-out: Blackgrass plant response rating): 0%
pest or weed control at 31 g/ha ([17]; Postemergence, 31 g ai/ha, visual injury after approx. 10 d, 0 to 100 scale, 0 no effect, 100 complete control, read-out: Plant response rating, Blackgrass): 0%
plant injury at 125 g/ha (corn (Zea mays); 125 g ai/ha, postemergence, visual injury on 0 to 100 scale (0 no effect, 100 complete control), approx. 10 d, read-out: Corn plant response rating): 0%
Corn plant response rating (crop injury, 0 = no effect, 100 = complete kill) at 31 g/ha (corn (Zea mays); Postemergence, 31 g ai/ha, visual injury after approx. 10 d, 0 to 100 scale, 0 no effect, 100 complete control): 0%
pest or weed control at 125 g/ha ([18]; 125 g ai/ha, postemergence, visual injury on 0 to 100 scale (0 no effect, 100 complete control), approx. 10 d, read-out: Foxtail, Giant plant response rating): 0%
pest or weed control at 31 g/ha ([18]; Postemergence, 31 g ai/ha, visual injury after approx. 10 d, 0 to 100 scale, 0 no effect, 100 complete control, read-out: Plant response rating, Foxtail, Giant): 0%
